Consider ten compounds from patent publication US12258328B2, “6-membered heteroaryl-containing aminopyridine compounds as EGFR inhibitors” (YUHAN CORPORATION, priority 2021, dated 2025).

Each structure is given as a SMILES string. Where two headings read alike, the source gives them in different places.

In assay [1] the target is EGFR del19/T790M/C797S (Homo sapiens, UniProt P00533, C797S/DEL746-750/T790M). Kind of assay: Biochemical EGFR kinase assay (Lance Ultra TR-FRET), triple mutant del19/T790M/C797S. The method in brief: (§1)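 Kinase activity is measured by TR-FRET phosphopeptide detection. Compounds span 0.003 μM to 10 μM; the 1 h reaction at room temperature is quenched with EDTA, then labelled antibody (2 nM) is incubated 60 min before reading.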
Sequence of EGFR del19/T790M/C797S (P00533 with tags, fused parts or gaps DEL746-750/T790M/C797S): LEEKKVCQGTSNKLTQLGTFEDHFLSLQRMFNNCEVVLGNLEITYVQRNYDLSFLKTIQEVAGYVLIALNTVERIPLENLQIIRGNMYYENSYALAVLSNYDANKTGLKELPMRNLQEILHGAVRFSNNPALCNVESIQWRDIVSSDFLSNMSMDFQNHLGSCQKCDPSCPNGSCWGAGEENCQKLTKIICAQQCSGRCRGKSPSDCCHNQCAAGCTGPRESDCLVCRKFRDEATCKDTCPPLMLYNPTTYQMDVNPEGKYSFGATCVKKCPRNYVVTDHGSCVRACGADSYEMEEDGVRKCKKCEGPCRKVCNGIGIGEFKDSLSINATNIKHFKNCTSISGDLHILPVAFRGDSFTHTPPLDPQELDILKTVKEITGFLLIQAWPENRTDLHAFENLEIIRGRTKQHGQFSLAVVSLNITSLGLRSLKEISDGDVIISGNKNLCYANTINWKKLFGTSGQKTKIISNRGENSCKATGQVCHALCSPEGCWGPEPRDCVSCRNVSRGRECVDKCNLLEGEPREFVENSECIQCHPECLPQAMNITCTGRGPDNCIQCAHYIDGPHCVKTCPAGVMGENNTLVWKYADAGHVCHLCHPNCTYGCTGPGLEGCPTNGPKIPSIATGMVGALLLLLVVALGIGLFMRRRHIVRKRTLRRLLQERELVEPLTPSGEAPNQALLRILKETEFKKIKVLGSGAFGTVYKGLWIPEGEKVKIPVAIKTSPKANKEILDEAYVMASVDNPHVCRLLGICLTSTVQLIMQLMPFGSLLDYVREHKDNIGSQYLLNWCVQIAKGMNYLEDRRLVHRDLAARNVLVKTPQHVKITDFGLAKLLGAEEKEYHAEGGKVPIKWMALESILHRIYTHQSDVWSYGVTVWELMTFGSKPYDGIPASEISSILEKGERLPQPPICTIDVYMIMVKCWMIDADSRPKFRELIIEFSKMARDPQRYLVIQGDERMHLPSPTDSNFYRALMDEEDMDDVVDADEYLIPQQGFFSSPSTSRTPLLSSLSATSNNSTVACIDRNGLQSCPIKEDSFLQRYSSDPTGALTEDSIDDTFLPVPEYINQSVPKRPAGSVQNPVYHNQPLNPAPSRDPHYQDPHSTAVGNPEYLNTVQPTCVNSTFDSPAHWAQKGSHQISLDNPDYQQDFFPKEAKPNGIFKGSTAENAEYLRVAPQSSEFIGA
Background: In TR-FRET formats the signal depends on donor and acceptor labels being close together.

Assay [2] has as its target EGFR L858R/C797S (Homo sapiens, UniProt P00533, C797S/L858R). Kind of assay: Biochemical EGFR kinase assay (Lance Ultra TR-FRET), double mutant L858R/C797S. The method in brief: as §1
Assay [3] addresses EGFR wildtype (Homo sapiens, UniProt P00533). Kind of assay: Biochemical EGFR kinase assay (Lance Ultra TR-FRET), wildtype. The gist of the method:
as §1

Assay [4] concerns the target EGFR L858R/T790M/C797S (Homo sapiens, UniProt P00533, C797S/L858R/T790M). Briefly: Biochemical EGFR kinase assay (Lance Ultra TR-FRET), triple mutant L858R/T790M/C797S. The gist of the method:
as §1

Assay [5] addresses EGFR del19/C797S (Homo sapiens, UniProt P00533, C797S/DEL746-750). Briefly: Biochemical EGFR kinase assay (Lance Ultra TR-FRET), double mutant del19/C797S. The gist of the method: as §1
[6] abbreviates: ATP at Km, read-out: IC50 del19/T790M/C797S, Km ATP.
The mark [7] stands for this setting: IC50 del19/T790M/C797S, 100 μM ATP.
Where [8] appears, read: ATP at Km, read-out: IC50 L858R/C797S, Km ATP.
Setting [9] is: ATP at Km, read-out: IC50 L858R/T790M/C797S, Km ATP.
The mark [10] stands for this setting: IC50 L858R/T790M/C797S, 100 μM ATP.
[11] abbreviates: ATP at Km, read-out: IC50 del19/C797S, Km ATP.
[12] abbreviates: ATP at Km, read-out: IC50 WT, Km ATP.
The mark [13] stands for this setting: IC50 del19/T790M/C797S (nM) 100 μM ATP, 100 μM ATP.
Setting [14] is: Km ATP, read-out: IC50 del19/T790M/C797S (nM) Km ATP.
Where [15] appears, read: IC50 L858R/C797S (nM) 100 μM ATP, 100 μM ATP.
Where [16] appears, read: Km ATP, read-out: IC50 L858R/C797S (nM) Km ATP.
[17] abbreviates: IC50 WT (nM) 100 μM ATP, 100 μM ATP.
The mark [18] stands for this setting: Km ATP, read-out: IC50 WT (nM) Km ATP.
Setting [19] is: IC50 L858R/T790M/C797S (nM) 100 μM ATP, 100 μM ATP.
Setting [20] is: Km ATP, read-out: IC50 L858R/T790M/C797S (nM) Km ATP.
Setting [21] is: IC50 del19/C797S (nM) 100 μM ATP, 100 μM ATP.
Where [22] appears, read: Km ATP, read-out: IC50 del19/C797S (nM) Km ATP.

Sequence of EGFR del19/C797S (P00533 with tags, fused parts or gaps DEL746-750/C797S): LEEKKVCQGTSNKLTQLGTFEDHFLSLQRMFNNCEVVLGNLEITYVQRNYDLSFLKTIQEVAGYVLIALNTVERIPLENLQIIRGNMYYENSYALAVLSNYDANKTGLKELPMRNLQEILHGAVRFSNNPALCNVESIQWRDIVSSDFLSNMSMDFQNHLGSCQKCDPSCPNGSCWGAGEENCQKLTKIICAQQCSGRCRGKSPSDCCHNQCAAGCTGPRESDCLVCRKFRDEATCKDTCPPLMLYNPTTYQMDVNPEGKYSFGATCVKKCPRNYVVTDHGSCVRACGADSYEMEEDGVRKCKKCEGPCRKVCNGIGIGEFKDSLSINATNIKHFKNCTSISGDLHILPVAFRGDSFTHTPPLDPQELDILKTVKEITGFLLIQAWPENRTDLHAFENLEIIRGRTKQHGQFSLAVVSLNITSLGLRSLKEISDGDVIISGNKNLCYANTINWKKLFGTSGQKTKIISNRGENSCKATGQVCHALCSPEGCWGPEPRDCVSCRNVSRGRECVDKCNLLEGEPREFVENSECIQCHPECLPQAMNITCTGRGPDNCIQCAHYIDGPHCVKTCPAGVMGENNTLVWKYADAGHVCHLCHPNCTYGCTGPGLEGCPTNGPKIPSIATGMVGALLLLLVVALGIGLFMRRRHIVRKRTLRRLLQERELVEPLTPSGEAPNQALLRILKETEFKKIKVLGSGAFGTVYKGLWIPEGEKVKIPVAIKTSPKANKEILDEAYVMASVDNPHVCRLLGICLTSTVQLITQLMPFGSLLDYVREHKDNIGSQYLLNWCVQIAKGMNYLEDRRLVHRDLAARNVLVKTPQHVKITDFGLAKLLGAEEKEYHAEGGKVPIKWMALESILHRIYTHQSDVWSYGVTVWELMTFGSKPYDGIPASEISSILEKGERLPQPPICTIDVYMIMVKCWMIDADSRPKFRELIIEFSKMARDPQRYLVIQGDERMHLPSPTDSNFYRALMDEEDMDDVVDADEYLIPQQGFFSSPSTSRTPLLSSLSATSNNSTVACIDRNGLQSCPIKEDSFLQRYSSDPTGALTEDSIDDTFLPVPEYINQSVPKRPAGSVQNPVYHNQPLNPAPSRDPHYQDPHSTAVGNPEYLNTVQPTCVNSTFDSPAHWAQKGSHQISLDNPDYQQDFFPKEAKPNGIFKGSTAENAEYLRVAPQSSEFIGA
Sequence of EGFR L858R/T790M/C797S (P00533 25-1210 T790M/C797S/L858R): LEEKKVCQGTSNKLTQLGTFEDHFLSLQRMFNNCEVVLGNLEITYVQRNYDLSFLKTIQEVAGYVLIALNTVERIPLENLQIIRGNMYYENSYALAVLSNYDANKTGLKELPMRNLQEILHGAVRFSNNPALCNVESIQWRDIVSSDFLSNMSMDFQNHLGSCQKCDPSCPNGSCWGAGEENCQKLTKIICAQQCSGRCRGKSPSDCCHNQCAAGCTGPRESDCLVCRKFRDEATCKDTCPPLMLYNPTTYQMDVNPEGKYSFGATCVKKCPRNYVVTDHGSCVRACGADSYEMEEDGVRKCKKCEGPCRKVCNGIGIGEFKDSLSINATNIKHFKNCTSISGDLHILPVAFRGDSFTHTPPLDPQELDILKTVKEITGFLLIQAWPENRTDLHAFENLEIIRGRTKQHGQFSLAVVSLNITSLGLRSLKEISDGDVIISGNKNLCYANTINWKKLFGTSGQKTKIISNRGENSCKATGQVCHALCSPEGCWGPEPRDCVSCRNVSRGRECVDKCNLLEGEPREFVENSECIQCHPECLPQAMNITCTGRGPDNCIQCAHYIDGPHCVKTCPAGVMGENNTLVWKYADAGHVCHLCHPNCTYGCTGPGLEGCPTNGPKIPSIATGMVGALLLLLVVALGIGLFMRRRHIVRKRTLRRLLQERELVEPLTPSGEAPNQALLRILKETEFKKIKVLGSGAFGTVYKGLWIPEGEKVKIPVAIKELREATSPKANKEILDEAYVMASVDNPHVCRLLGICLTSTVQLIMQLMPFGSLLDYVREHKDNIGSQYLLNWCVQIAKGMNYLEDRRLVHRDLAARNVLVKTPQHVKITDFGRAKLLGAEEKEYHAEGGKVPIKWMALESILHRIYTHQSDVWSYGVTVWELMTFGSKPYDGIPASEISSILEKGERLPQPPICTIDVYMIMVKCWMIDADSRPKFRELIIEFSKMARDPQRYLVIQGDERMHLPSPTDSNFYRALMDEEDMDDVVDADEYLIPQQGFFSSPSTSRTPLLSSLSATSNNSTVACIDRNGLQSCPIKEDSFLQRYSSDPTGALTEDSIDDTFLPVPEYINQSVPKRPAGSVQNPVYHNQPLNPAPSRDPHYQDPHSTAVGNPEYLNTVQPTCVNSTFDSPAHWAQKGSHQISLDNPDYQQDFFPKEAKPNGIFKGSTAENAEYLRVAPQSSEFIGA
Sequence of EGFR wildtype (P00533 25-1210): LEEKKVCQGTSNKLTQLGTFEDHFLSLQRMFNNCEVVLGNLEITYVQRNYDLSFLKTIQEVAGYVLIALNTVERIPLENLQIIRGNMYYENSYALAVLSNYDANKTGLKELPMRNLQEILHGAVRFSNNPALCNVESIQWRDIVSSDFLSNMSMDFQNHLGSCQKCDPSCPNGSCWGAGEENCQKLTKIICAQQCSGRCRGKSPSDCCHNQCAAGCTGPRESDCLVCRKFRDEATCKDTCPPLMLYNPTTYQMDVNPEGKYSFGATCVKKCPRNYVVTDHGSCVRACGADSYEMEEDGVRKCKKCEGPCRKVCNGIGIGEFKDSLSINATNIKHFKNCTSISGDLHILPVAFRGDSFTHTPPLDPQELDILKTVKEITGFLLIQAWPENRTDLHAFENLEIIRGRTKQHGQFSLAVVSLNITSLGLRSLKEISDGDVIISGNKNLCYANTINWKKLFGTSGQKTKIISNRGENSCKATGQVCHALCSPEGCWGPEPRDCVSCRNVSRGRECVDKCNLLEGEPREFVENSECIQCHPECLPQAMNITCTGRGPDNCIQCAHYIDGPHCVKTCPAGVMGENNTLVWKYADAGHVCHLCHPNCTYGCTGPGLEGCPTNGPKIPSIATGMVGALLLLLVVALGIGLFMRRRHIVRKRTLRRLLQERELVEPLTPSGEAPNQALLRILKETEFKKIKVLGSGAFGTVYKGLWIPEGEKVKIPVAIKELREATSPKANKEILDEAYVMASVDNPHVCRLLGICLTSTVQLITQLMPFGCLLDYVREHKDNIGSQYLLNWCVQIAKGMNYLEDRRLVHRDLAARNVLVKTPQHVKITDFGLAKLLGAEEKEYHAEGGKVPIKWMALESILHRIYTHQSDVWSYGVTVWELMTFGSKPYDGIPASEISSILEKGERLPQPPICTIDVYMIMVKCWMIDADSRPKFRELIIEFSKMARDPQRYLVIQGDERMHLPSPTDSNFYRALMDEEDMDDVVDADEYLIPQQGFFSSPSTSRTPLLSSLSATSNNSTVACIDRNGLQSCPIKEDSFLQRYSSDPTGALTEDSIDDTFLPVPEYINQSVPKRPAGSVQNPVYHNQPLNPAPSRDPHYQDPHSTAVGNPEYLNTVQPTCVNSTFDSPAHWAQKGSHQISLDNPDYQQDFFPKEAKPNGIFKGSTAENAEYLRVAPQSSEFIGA

`CN1CCC(Oc2cccc(-c3cnc(Nc4ccnc(-c5cnn(S(=O)(=O)C6CC6)c5)n4)cc3N[C@H]3CC[C@@](C)(O)CC3)n2)CC1` [Example 286, (1s,4s)-4-((6′-((2-(1-(Cyclopropylsulfonyl)-1H-pyrazol-4-yl)pyrimidin-4-yl)amino)-6-((1-methylpiperidin-4-yl)oxy)-[2,3′-bipyridin]-4′-yl)amino)-1-methylcyclohexan-1-ol]: the IC50 in assay [1] (setting [6]) came to 0.2 nM; in assay [1] (setting [7]), 0.3 nM; in assay [2] (setting [8]), 0.1 nM; in assay [2] (IC50 L858R/C797S, 100 μM ATP), 2.5 nM; in assay [3] (IC50 WT, 100 μM ATP), 735 nM; in assay [4] (setting [9]), 0.1 nM. For the same compound, the IC50 is 0.3 nM in assay [4] (setting [10]); 0.3 nM in assay [5] (setting [11]); 0.3 nM in assay [5] (IC50 del19/C797S, 100 μM ATP).

On to `CN(C)C[C@H]1CC[C@@H](Nc2cc(Nc3ccnc(-c4cnn(S(=O)(=O)C5CC5)c4)n3)ncc2-c2cccc(CC(F)(F)F)n2)CC1` [Example 248, N^6′-(2-(1-(Cyclopropylsulfonyl)-1H-pyrazol-4-yl)pyrimidin-4-yl)-N^4′-((1s,4s)-4-((dimethylamino)methyl)cyclohexyl)-6-(2,2,2-trifluoroethyl)-[2,3′-bipyridine]-4′,6′-diamine], for which the IC50 in assay [1] (setting [6]) amounted to 0.4 nM; in assay [1] (setting [7]), 0.4 nM; in assay [2] (setting [8]), 1.8 nM; in assay [2] (IC50 L858R/C797S, 100 μM ATP) it was 9.7 nM; in assay [3] (setting [12]), 4.6 nM; in assay [3] (IC50 WT, 100 μM ATP), 7620 nM. Further, the IC50 in assay [4] (setting [9]) turned out to be 0.1 nM; in assay [4] (setting [10]), 0.3 nM; in assay [5] (setting [11]), 2 nM; in assay [5] (IC50 del19/C797S, 100 μM ATP) it was 5 nM.

On to `CN(C)Cc1cnc(-c2cnc(Nc3ccnc(-c4cnn(S(=O)(=O)C5CC5)c4)n3)cc2N[C@H]2CC[C@@](C)(O)CC2)cn1` [Example 65, (1s,4s)-4-((2-((2-(1-(Cyclopropylsulfonyl)-1H-pyrazol-4-yl)pyrimidin-4-yl)amino)-5-(5-((dimethylamino)methyl)pyrazin-2-yl)pyridin-4-yl)amino)-1-methylcyclohexan-1-ol], for which the IC50 stood at 0.1 nM in assay [1] (setting [13]); 0.1 nM in assay [1] (setting [14]); 0.9 nM in assay [2] (setting [15]); 0.1 nM in assay [2] (setting [16]); 1140 nM in assay [3] (setting [17]); 2.4 nM in assay [3] (setting [18]). The IC50 was 0.3 nM in assay [4] (setting [19]), 0.1 nM in assay [4] (setting [20]), 0.2 nM in assay [5] (setting [21]) and 0.3 nM in assay [5] (setting [22]).

`CN1CCN(Cc2ccc(-c3cnc(Nc4ccnc(-c5cnn(S(=O)(=O)C6CC6)c5)n4)cc3N3CCC(C)(CO)CC3)nc2)CC1` [Example 1, (1-(6′-((2-(1-(Cyclopropylsulfonyl)-1H-pyrazol-4-yl)pyrimidin-4-yl)amino)-5-((4-methylpiperazin-1-yl)methyl)-[2,3′-bipyridin]-4′-yl)-4-methylpiperidin-4-yl)methanol]: the IC50 in assay [1] (setting [13]) was 0.8 nM; in assay [1] (setting [14]), 1.2 nM; in assay [2] (setting [15]), 223 nM; in assay [2] (setting [16]), 10.5 nM; in assay [3] (setting [17]) it was > 10000 nM; in assay [3] (setting [18]), 212 nM. Besides, the IC50 in assay [4] (setting [19]) worked out at 1.3 nM; in assay [4] (setting [20]), 0.4 nM; in assay [5] (setting [21]), 52.3 nM; in assay [5] (setting [22]), 37.5 nM.

Take `O=S(=O)(C1CC1)n1cc(-c2nccc(Nc3cc(N[C@H]4CCC[C@H](CO)C4)c(-c4ccc(CC(F)(F)F)cn4)cn3)n2)cn1` [Example 222, ((1S,3S)-3-((6′-((2-(1-(Cyclopropylsulfonyl)-1H-pyrazol-4-yl)pyrimidin-4-yl)amino)-5-(2,2,2-trifluoroethyl)-[2,3′-bipyridin]-4′-yl)amino)cyclohexyl)methanol]: the IC50 in assay [1] (setting [6]) is 3.9 nM; in assay [1] (setting [7]), 3.4 nM; in assay [2] (setting [8]) it was 11.7 nM; in assay [2] (IC50 L858R/C797S, 100 μM ATP), 296 nM; in assay [3] (setting [12]), 37.4 nM; in assay [3] (IC50 WT, 100 μM ATP), > 10000 nM. Also, the IC50 in assay [4] (setting [9]) is 1.7 nM; in assay [4] (setting [10]), 2 nM; in assay [5] (setting [11]) it was 8.9 nM; in assay [5] (IC50 del19/C797S, 100 μM ATP), 16.8 nM.

For `CN1CCC(Oc2ccc(-c3cnc(Nc4ccnc(-c5cnn(S(=O)(=O)C6CC6)c5)n4)cc3NC3CCC(F)CC3)nc2)CC1` (stereo not shown) [Example 254, N^6′-(2-(1-(Cyclopropylsulfonyl)-1H-pyrazol-4-yl)pyrimidin-4-yl)-N^4′-(4-fluorocyclohexyl)-5-((1-methylpiperidin-4-yl)oxy)-[2,3′-bipyridine]-4′,6′-diamine], the IC50 in assay [1] (setting [6]) is 0.04 nM; in assay [2] (setting [8]), 0.4 nM; in assay [3] (setting [12]), 0.7 nM; in assay [4] (setting [9]), 0.02 nM; in assay [5] (setting [11]), 0.1 nM.

With `O=S(=O)(C1CC1)n1cc(-c2nccc(Nc3cc(N[C@H]4CC[C@@H](CO)CC4)c(-c4cc(CN5CCC(F)(F)CC5)ccn4)cn3)n2)cn1` [Example 113, ((1s,4s)-4-((6′-((2-(1-(Cyclopropylsulfonyl)-1H-pyrazol-4-yl)pyrimidin-4-yl)amino)-4-((4,4-difluoropiperidin-1-yl)methyl)-[2,3′-bipyridin]-4′-yl)amino)cyclohexyl)methanol], the IC50 in assay [1] (setting [13]) is 5.3 nM; in assay [1] (setting [14]), 7.5 nM; in assay [2] (setting [15]), 20.8 nM; in assay [2] (setting [16]), 8.8 nM; in assay [3] (setting [17]), > 10000 nM; in assay [3] (setting [18]), 15 nM. For the same compound, the IC50 came to 3.2 nM in assay [4] (setting [19]), 2.3 nM in assay [4] (setting [20]), 19.9 nM in assay [5] (setting [21]) and 11 nM in assay [5] (setting [22]).

With `CC(C)(O)[C@H]1CC[C@@H](Nc2cc(Nc3ccnc(-c4cnn(S(=O)(=O)C5CC5)c4)n3)ncc2-c2cc(OCCN3CCOCC3)ccn2)CC1` [Example 213, 2-((1s,4s)-4-((6′-((2-(1-(Cyclopropylsulfonyl)-1H-pyrazol-4-yl)pyrimidin-4-yl)amino)-4-(2-morpholinoethoxy)-[2,3′-bipyridin]-4′-yl)amino)cyclohexyl)propan-2-ol], the IC50 was 1.2 nM in assay [1] (setting [6]); 1.4 nM in assay [2] (setting [8]); 85.4 nM in assay [2] (IC50 L858R/C797S, 100 μM ATP); 0.6 nM in assay [3] (setting [12]); > 10000 nM in assay [3] (IC50 WT, 100 μM ATP); 0.8 nM in assay [4] (setting [9]). In addition, the IC50 came to 1.3 nM in assay [4] (setting [10]); 3.8 nM in assay [5] (setting [11]); 7.7 nM in assay [5] (IC50 del19/C797S, 100 μM ATP).

With `CN1CCN(Cc2cccc(-c3cnc(Nc4ccnc(-c5cnn(S(=O)(=O)C6CC6)c5)n4)cc3N[C@H]3CC[C@@](C)(O)CC3)n2)CC1` [Example 28, (1s,4s)-4-((6′-((2-(1-(Cyclopropylsulfonyl)-1H-pyrazol-4-yl)pyrimidin-4-yl)amino)-6-((4-methylpiperazin-1-yl)methyl)-[2,3′-bipyridin]-4′-yl)amino)-1-methylcyclohexan-1-ol], the IC50 came to 0.1 nM in assay [1] (setting [13]); 1.6 nM in assay [2] (setting [15]); 1530 nM in assay [3] (setting [17]); 0.1 nM in assay [4] (setting [19]); 0.6 nM in assay [5] (setting [21]).

As to `CN(C)CCOc1cnc(-c2cnc(Nc3ccnc(-c4cnn(S(=O)(=O)C5CC5)c4)n3)cc2NC2CCC(C)(O)CC2)cn1` (stereo not shown) [Example 115, (1s,4s)-4-((2-((2-(1-(Cyclopropylsulfonyl)-1H-pyrazol-4-yl)pyrimidin-4-yl)amino)-5-(5-(2-(dimethylamino)ethoxy)pyrazin-2-yl)pyridin-4-yl)amino)-1-methylcyclohexan-1-ol], the IC50 in assay [1] (setting [13]) was 0.4 nM; in assay [1] (setting [14]), 0.1 nM; in assay [2] (setting [15]), 0.5 nM; in assay [2] (setting [16]), 0.1 nM; in assay [3] (setting [17]), > 10000 nM; in assay [3] (setting [18]), 1.8 nM. Besides, the IC50 in assay [4] (setting [19]) is 0.1 nM; in assay [4] (setting [20]), 0.1 nM; in assay [5] (setting [21]) it was 0.8 nM; in assay [5] (setting [22]), 0.4 nM.
